Key:
human V2 Tango receptor = human V2 Tango receptor (Homo sapiens, UniProt P30518); assay: Tango control, human V2 Tango receptor; type: cell-based; settings: data not shown
[1] = tested on: HTLA cells not expressing a Tango receptor; assay: Tango negative control, cells transfected with pEYFP-N1; type: cell-based, human

Row | Compound | effect on HTLA cells expressing the human V2 Tango receptor (human V2 Tango receptor) | activity on HTLA cells not expressing a Tango receptor [1]
1 | CN(C)CCCN1c2ccccc2Sc2ccc(Cl)cc21 [Chlorpromazine] | no effect | inactive
2 | CCCN1CCC[C@@H]2Cc3n[nH]cc3C[C@H]21 [Quinpirole] | no effect | inactive
